Earlier results, collected in PMC3346673 (Toxicological and environmental chemistry, 2012).

Key:
[1] = temporarily ref Risher & Amier, 2005; cited from earlier work
[2] = administered by sc injection; cited from earlier work

SMILES: O=S(=O)(O)CC(S)CS (stereo not drawn) [DMPS, dimercaptopropanesulfonate]
- reduction of blood mercury levels [1]: about 20%

SMILES: O=C(O)C(S)C(S)C(=O)O (stereo not drawn) [DMSA, dimercaptosuccinic acid]
- reduction of blood mercury levels [1]: about 20%

SMILES: [Cl][Hg][Cl] [HgCl2, mercury chloride]
- predicted LD50 [2]: 14 mg HgCl2 kg^−1
